Measurements reported in patent US6864378B2, “Integrated continuous process for anhydro sugar alcohol manufacture” (E. I. du Pont de Nemours and Company, priority 2002, dated 2005).

Format: physicochemical
Excerpt: The reaction product obtained by processes such as the above, contains about 70 to 80% by weight isosorbide and 20 to 30% undesired reaction byproducts. The reaction product thus needs to be subjected to one or more separation steps, such as evaporation, distillation or chromatographic separation, to isolate the isosorbide. Chromatographic separation is disclosed in U.S. Patent Application No. 60/246038 (filed 6, Nov. 2000). Separation by vaporization or distillation is difficult because of the low vapor pressure of isosorbide. […] Evaporation or distillation at temperatures not much higher than about 140° C. is desirable to-minimize product degradation and obtain good purity isosorbide, but the recovery is poor. At higher temperatures, e.g., 170° C., more isosorbide is recovered, but it is of poorer quality.
The sorbitans, dimers, and polymer byproducts are all considerably higher boiling than isosorbide. For example, the vapor pressure of the sorbitans is only about 0.04 mm Hg at 140° C., about one-fiftieth that of isosorbide. The dimers are even less volatile, and the polymers are practically nonvolatile. Therefore, the water vapor volatilizes most of the dianhydro sugar alcohols but not such high boiling byproducts. […]

Which vapor pressure does the source give for O[C@@H]1CO[C@H]2[C@@H]1OC[C@@H]2O [isosorbide, 1,4:3,6-dianhydrosorbitol] here?
The vapor pressure was 1.75 mm Hg.
